Experimental data reported in patent US9011853B2, “B7-H4 fusion proteins and methods of use thereof” (Amplimmune, Inc., priority 2009, dated 2015).
Several values for one entry are separate records, joined by “and”; a condition that tells them apart may be missing. Identical values can stand only once.

System: serum levels of 58 analytes
Assay: Serum biomarker analysis, quantitative immunoassay multi-analyte profiling (Rules-Based Medicine RodentMAP v2.9), AA#80
Type: in vivo, mouse
Conditions: serum
Procedure: In AA#80, serum samples were collected on Day 27, Day 34, Day 41 and Day 55 via the submandibular vein. Approximately 200 μL of blood per mouse was collected in Microtainer® serum separator tubes. Serum was removed following centrifugation and stored at <−65° C. until analysis.
Selected serum samples were sent to Rules-Based Medicine (Austin, Tex.) for quantitative immunoassay multi-analyte profiling of serum samples, with the goal of identifying biomarkers that could be used to monitor disease progression and response to B7-H4-Ig treatment. Day 27, Day 34, and Day 41 sera from the three representative mice in the B7-H4-Ig group (tag #3332, 3334, and 3338) and three representative mice in the Synagis® group (tag #3324, 3329, and 3330) were analyzed for levels of 58 analytes using the RodentMAP v2.9 Testing Service.
Data from the Rules-Based Medicine analysis was analyzed using Microsoft Excel and GraphPad Prism software. T-tests were performed to compare the levels of each analyte in the B7-H4-Ig versus Synagis® treated samples. No correction was made for multiple comparisons. Additionally, correlation coefficients were calculated for each analyte versus disease score.

Human B7-H4-Ig: human B7-H4 extracellular domain fused to hinge, CH2 and CH3 regions of human immunoglobulin Cγ1 chain; representative SEQ ID NOs:114-137
SAP (Serum Amyloid P): Human LgG1 control vs. human B7-H4 Ig, ALL (p of difference between groups, ALL): 0.26 | SAP (Serum Amyloid P): Human LgG1 control vs. human B7-H4 Ig, D 27 (p of difference between groups, D 27): 0.32 | SAP (Serum Amyloid P): Human LgG1 control vs. human B7-H4 Ig, D 34 (p of difference between groups, D 34): 0.50 | SAP (Serum Amyloid P): Human LgG1 control vs. human B7-H4 Ig, D 41 (p of difference between groups, D 41): 0.13 | M-CSF (Macrophage-Colony Stimulating Factor) (Day 27, LDD 0.01795): 6.88 ng/mL and 6.51 ng/mL and 6.21 ng/mL | MIP-1gamma (Macrophage Inflammatory Protein-1gamma) (Day 27, LDD 0.0736): 43.2 ng/mL and 38.6 ng/mL and 32.1 ng/mL | TNF-alpha (Tumor Necrosis Factor-alpha) (Day 27, LDD 0.137): <low> | TEMP-1 (Tissue Inhibitor of Metalicproteinase Type-1) (Day 27, LDD 0.18): 1.38 ng/mL and 1.31 ng/mL and 1.14 ng/mL | IL-5 (Interleukin-5) (Day 27, LDD 0.194): 0.474 ng/mL and 0.333 ng/mL | MIP-1alpha (Macrophage Inflammatory Protein-1alpha) (Day 27, LDD 0.2255): 2.83 ng/mL and 3.13 ng/mL and 3.03 ng/mL | MIP-3beta (Macrophage Inflammatory Protein-3beta) (Day 27, LDD 0.465): 2.6 ng/mL and 2.79 ng/mL and 2.52 ng/mL | Tissue Factor (Day 27, LDD 0.5175): 8.32 ng/mL and 11.7 ng/mL and 10 ng/mL | MPO (Myeloperoxidase) (Day 27, LDD 0.95): 245 ng/mL and 227 ng/mL and 191 ng/mL | SGOT (Serum Glutamic-Oxaloacetic Transaminase) (Day 27, LDD 1.86): 74.3 µg/mL and 84.6 µg/mL and 94.3 µg/mL | TPO (Thromboproletin) (Day 27, LDD 2.66): 38 ng/mL and 39.8 ng/mL and 34.2 ng/mL | SAP (Setrum Amtyloid P) (Day 27, LDD 5.4): 41 µg/mL and 39.5 µg/mL and 30.7 µg/mL | MIP-2 (Macrophage Inflammatory Protein-2) (Day 27, LDD 7.174): 20.9 pg/mL and 16.3 pg/mL and 21.6 pg/mL | MMP-9 (Matrix Metalloproteinase-9) (Day 27, LDD 10): 266 ng/mL and 140 ng/mL | MCP-1 (Monocyte Chemoattractant Protein-1) (Day 27, LDD 16.924): 72.6 pg/mL and 55.4 pg/mL and 66.9 pg/mL | VCAM-1 (Vescular Cell Adhesion Molecule-1) (Day 27, LDD 19): 2250 ng/mL and 2120 ng/mL and 2130 ng/mL | MDC (Macrophage-Derived Chemokine) (Day 27, LDD 21.85): 1250 pg/mL and 1110 pg/mL and 1040 pg/mL | Myoglobin (Day 27, LDD 24): 17.5 ng/mL and 12.1 ng/mL and 9.69 ng/mL | MCP-3 (Monocyte Chemoattractant Protein-3) (Day 27, LDD 31.36): 160 pg/mL and 120 pg/mL and 129 pg/mL | VEGF (Vescular Endotheial Cell Growth Factor) (Day 27, LDD 38.2): 150 pg/mL and 128 pg/mL and 160 pg/mL | IP-10 (Inducible Protein-10) (Day 27, LDD 40.28): 57.3 pg/mL and 55.5 pg/mL and 38.6 pg/mL | LIF (Leukemia Infabitory Factor) (Day 27, LDD 43.6): 1540 pg/mL and 1500 pg/mL | MCP-5 (Monocyte Chemoattractant Protein-5) (Day 27, LDD 46.38): 41.4 pg/mL and 33.8 pg/mL and 29.4 pg/mL | SCF (Stem Cell Factor) (Day 27, LDD 75.17): 204 pg/mL and 194 pg/mL and 275 pg/mL | MIP-1beta (Macrophage Inflammatory Protein-1beta) (Day 27, LDD 77.65): 110 pg/mL and 115 pg/mL and 173 pg/mL | Lymphotactin (Day 27, LDD 85.48): 164 pg/mL and 169 pg/mL and 194 pg/mL | VWF (Von Willebrand Factor) (Day 27, LDD 98.6): 143 ng/mL and 123 ng/mL and 107 ng/mL | M-CSF (Macrophage-Colony Stimulating Factor) (Day 34, LDD 0.01795): 5.79 ng/mL and 6.35 ng/mL and 6.51 ng/mL | MIP-1gamma (Macrophage Inflammatory Protein-1gamma) (Day 34, LDD 0.0736): 50.4 ng/mL and 30.1 ng/mL and 41 ng/mL | TNF-alpha (Tumor Necrosis Factor-alpha) (Day 34, LDD 0.137): <low> | IL-5 (Interleukin-5) (Day 34, LDD 0.194): 0.474 ng/mL and 0.264 ng/mL and 0.403 ng/mL | MIP-1alpha (Macrophage Inflammatory Protein-1alpha) (Day 34, LDD 0.2255): 3.03 ng/mL and 2.88 ng/mL and 3.08 ng/mL | MIP-3beta (Macrophage Inflammatory Protein-3beta) (Day 34, LDD 0.465): 2.79 ng/mL and 2.49 ng/mL and 3.11 ng/mL | Tissue Factor (Day 34, LDD 0.5175): 10.8 ng/mL and 10.4 ng/mL and 13.3 ng/mL | MPO (Myeloperoxidase) (Day 34, LDD 0.95): 247 ng/mL and 254 ng/mL and 242 ng/mL | TPO (Thromboproletin) (Day 34, LDD 2.66): 43.4 ng/mL and 30.4 ng/mL and 36.1 ng/mL | SAP (Setrum Amtyloid P) (Day 34, LDD 5.4): 51.8 µg/mL and 31 µg/mL and 42.6 µg/mL | MIP-2 (Macrophage Inflammatory Protein-2) (Day 34, LDD 7.174): 36.8 pg/mL and 26.6 pg/mL and 22.2 pg/mL | MMP-9 (Matrix Metalloproteinase-9) (Day 34, LDD 10): 503 ng/mL and 334 ng/mL and 255 ng/mL | MCP-1 (Monocyte Chemoattractant Protein-1) (Day 34, LDD 16.924): 84.6 pg/mL and 56 pg/mL and 101 pg/mL | VCAM-1 (Vescular Cell Adhesion Molecule-1) (Day 34, LDD 19): 1860 ng/mL and 2190 ng/mL and 2470 ng/mL | MDC (Macrophage-Derived Chemokine) (Day 34, LDD 21.85): 1390 pg/mL and 1120 pg/mL and 1360 pg/mL | VEGF (Vescular Endotheial Cell Growth Factor) (Day 34, LDD 38.2): 160 pg/mL and 141 pg/mL and 155 pg/mL | IP-10 (Inducible Protein-10) (Day 34, LDD 40.28): 81 pg/mL and 59 pg/mL and 54.2 pg/mL | LIF (Leukemia Infabitory Factor) (Day 34, LDD 43.6): 1430 pg/mL and 1500 pg/mL and 1480 pg/mL | MCP-5 (Monocyte Chemoattractant Protein-5) (Day 34, LDD 46.38): 57.8 pg/mL and 29.2 pg/mL and 46.7 pg/mL | SCF (Stem Cell Factor) (Day 34, LDD 75.17): 182 pg/mL and 220 pg/mL and 217 pg/mL | Lymphotactin (Day 34, LDD 85.48): 196 pg/mL and 162 pg/mL and 197 pg/mL | VWF (Von Willebrand Factor) (Day 34, LDD 98.6): 101 ng/mL and 137 ng/mL and 135 ng/mL | M-CSF (Macrophage-Colony Stimulating Factor) (Day 41, LDD 0.01795): 5.02 ng/mL and 5.67 ng/mL and 6.07 ng/mL | MIP-1gamma (Macrophage Inflammatory Protein-1gamma) (Day 41, LDD 0.0736): 42.8 ng/mL and 32.7 ng/mL and 42.5 ng/mL | OSM (Oncostatin M) (Day 41, LDD 0.13): <low> | TNF-alpha (Tumor Necrosis Factor-alpha) (Day 41, LDD 0.137): <low> | IL-5 (Interleukin-5) (Day 41, LDD 0.194): 0.474 ng/mL and 0.254 ng/mL and 0.264 ng/mL | MIP-1alpha (Macrophage Inflammatory Protein-1alpha) (Day 41, LDD 0.2255): 3.13 ng/mL and 2.93 ng/mL and 3.03 ng/mL | IL-7 (Interleukin-7) (Day 41, LDD 0.309): <low> | MIP-3beta (Macrophage Inflammatory Protein-3beta) (Day 41, LDD 0.465): 3.05 ng/mL and 3.03 ng/mL and 2.87 ng/mL | Tissue Factor (Day 41, LDD 0.5175): 10.8 ng/mL and 9.17 ng/mL and 9.37 ng/mL | MPO (Myeloperoxidase) (Day 41, LDD 0.95): 208 ng/mL and 228 ng/mL and 285 ng/mL | SGOT (Serum Glutamic-Oxaloacetic Transaminase) (Day 41, LDD 1.86): 85.8 µg/mL and 93.9 µg/mL and 71.1 µg/mL | TPO (Thromboproletin) (Day 41, LDD 2.66): 38 ng/mL and 32.4 ng/mL and 36.1 ng/mL | SAP (Setrum Amtyloid P) (Day 41, LDD 5.4): 47.9 µg/mL and 38.6 µg/mL and 46 µg/mL | MIP-2 (Macrophage Inflammatory Protein-2) (Day 41, LDD 7.174): 25.9 pg/mL and 23.4 pg/mL and 19.7 pg/mL | MCP-1 (Monocyte Chemoattractant Protein-1) (Day 41, LDD 16.924): 71.9 pg/mL and 53.1 pg/mL and 74.8 pg/mL | VCAM-1 (Vescular Cell Adhesion Molecule-1) (Day 41, LDD 19): 1840 ng/mL and 1940 ng/mL and 2390 ng/mL | MDC (Macrophage-Derived Chemokine) (Day 41, LDD 21.85): 1350 pg/mL and 1110 pg/mL and 1290 pg/mL | MCP-3 (Monocyte Chemoattractant Protein-3) (Day 41, LDD 31.36): 197 pg/mL and 115 pg/mL and 132 pg/mL | VEGF (Vescular Endotheial Cell Growth Factor) (Day 41, LDD 38.2): 125 pg/mL and 120 pg/mL and 155 pg/mL | IP-10 (Inducible Protein-10) (Day 41, LDD 40.28): 69.3 pg/mL and 47.6 pg/mL and 59 pg/mL | LIF (Leukemia Infabitory Factor) (Day 41, LDD 43.6): 1540 pg/mL and 1980 pg/mL | MCP-5 (Monocyte Chemoattractant Protein-5) (Day 41, LDD 46.38): 48.8 pg/mL and 35.7 pg/mL and 37.9 pg/mL | SCF (Stem Cell Factor) (Day 41, LDD 75.17): 175 pg/mL and 198 pg/mL and 210 pg/mL | Lymphotactin (Day 41, LDD 85.48): 187 pg/mL and 148 pg/mL | VWF (Von Willebrand Factor) (Day 41, LDD 98.6): 113 ng/mL and 111 ng/mL and 133 ng/mL
